The record followed here is article PMC11584562 (The Journal of Biological Chemistry, 2024).

The target of data set [1] is T1, CnKbc1 (Cryptococcus neoformans, UniProt J9VT24).
T1 sequence (J9VT24 1-696): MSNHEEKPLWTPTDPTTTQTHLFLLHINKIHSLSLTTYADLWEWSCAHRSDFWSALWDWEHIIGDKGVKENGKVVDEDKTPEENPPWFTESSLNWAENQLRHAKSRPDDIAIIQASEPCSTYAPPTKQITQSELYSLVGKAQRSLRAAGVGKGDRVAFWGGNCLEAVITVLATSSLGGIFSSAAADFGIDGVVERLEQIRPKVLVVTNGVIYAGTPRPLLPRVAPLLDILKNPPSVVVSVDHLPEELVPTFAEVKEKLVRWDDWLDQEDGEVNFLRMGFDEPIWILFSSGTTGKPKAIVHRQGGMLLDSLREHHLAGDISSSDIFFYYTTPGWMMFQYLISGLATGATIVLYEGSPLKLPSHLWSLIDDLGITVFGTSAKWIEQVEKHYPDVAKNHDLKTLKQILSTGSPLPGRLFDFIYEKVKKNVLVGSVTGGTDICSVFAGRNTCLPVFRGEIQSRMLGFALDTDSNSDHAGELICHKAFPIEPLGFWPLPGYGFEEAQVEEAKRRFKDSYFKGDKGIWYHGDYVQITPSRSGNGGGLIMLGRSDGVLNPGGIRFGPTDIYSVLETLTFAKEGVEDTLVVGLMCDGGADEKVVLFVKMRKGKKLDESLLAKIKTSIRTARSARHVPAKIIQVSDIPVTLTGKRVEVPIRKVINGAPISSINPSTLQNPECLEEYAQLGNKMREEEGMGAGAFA
Put plainly: EnzChek pyrophosphate-release coupled assay. The format is biochemical.

The target in data set [2] is T2, LiAcs1 (Leishmania infantum, UniProt A4I093).
T2 sequence (A4I093 1-705): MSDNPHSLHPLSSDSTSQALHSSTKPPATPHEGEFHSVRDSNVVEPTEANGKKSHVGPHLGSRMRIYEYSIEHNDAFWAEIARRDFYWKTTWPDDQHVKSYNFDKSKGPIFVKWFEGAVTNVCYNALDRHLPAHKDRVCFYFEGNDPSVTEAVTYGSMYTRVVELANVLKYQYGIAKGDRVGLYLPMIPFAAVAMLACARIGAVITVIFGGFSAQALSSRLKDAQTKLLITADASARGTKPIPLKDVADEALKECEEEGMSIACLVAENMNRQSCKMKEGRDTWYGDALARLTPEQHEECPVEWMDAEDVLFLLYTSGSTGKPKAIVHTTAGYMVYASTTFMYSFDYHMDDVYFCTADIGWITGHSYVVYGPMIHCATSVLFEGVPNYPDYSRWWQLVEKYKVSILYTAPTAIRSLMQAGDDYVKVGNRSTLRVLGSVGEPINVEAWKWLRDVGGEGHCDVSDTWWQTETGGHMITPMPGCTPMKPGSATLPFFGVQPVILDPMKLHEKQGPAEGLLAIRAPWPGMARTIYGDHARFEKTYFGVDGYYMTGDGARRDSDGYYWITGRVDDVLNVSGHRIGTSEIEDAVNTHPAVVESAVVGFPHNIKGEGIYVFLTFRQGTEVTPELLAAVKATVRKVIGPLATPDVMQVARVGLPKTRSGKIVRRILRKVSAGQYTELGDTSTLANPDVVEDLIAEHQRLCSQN
Put plainly: EnzChek pyrophosphate-release coupled assay. The format is biochemical.

Data set [3] concerns the target T3, CnAcs1 (Cryptococcus neoformans, UniProt J9VFT1).
T3 sequence (J9VFT1 1-680): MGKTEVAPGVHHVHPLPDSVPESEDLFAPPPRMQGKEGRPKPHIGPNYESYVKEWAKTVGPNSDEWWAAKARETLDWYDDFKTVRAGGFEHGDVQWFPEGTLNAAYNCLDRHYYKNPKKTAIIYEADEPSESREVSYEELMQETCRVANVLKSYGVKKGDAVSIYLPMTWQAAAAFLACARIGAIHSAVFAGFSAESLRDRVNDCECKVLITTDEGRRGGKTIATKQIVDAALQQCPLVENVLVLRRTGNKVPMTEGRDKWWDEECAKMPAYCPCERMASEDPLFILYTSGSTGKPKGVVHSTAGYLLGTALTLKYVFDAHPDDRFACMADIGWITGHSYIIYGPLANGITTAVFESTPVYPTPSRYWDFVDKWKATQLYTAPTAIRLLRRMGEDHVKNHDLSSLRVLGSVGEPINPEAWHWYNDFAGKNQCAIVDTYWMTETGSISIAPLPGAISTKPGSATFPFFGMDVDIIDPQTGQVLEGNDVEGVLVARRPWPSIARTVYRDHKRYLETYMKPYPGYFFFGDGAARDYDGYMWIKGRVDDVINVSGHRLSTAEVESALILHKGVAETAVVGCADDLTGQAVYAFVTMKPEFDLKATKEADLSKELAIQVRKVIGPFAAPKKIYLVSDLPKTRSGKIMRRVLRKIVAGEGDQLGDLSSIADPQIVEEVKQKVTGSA
The data set is described as follows: EnzChek pyrophosphate-release coupled assay. The format is biochemical.

The target in data set [4] is T1, CnKbc1. The data set is described as follows: biochemical.
For data set [5], the target named is T3, CnAcs1. Put plainly: biochemical.
For data set [6], the target named is T3, CnAcs1. Put plainly: biochemical. The source holds these as a separate data set.
Data set [7] addresses T1, CnKbc1. The data set is described as follows: biochemical. This is another data set of the same source.
The target in data set [8] is T2, LiAcs1. The data set is described as follows: biochemical.
The target in data set [9] is T2, LiAcs1. Put plainly: biochemical. This is another data set of the same source.
Substrate in data set [10]: CC(=O)CC(=O)O
Put plainly: EnzChek pyrophosphate-release coupled assay. In kind it is biochemical, Leishmania infantum. The note with it: ATP and CoA as co-substrates, 4 mM MgCl2, 37 °C.

Substrate in data set [11]: CC(=O)O
Put plainly: EnzChek pyrophosphate-release coupled assay. The note with it: ATP and CoA as co-substrates, 4 mM MgCl2, 37 °C. The format is biochemical, Leishmania infantum.

`CCOP(=O)(O)OC[C@H]1O[C@@H](n2cnc3c(N)ncnc32)[C@H](O)[C@@H]1O` [ii, Ethyl-AMP]: the IC50 is over 100 µM against CnKbc1 [1], 2 µM at LiAcs1 [2] and 8 µM against CnAcs1 [3].
Take `CCCOP(=O)(O)OC[C@H]1O[C@@H](n2cnc3c(N)ncnc32)[C@H](O)[C@@H]1O` [iv, Propyl-AMP]: the IC50 at CnKbc1 [4] was over 100 µM; at LiAcs1 [2], 13.5 µM; against CnAcs1 [3] it was 21.1 µM.
For `COP(=O)(O)OC[C@H]1O[C@@H](n2cnc3c(N)ncnc32)[C@H](O)[C@@H]1O` [i, Methyl-AMP], the IC50 against CnKbc1 [4] is over 100 µM; against CnAcs1 [5], over 100 µM; at LiAcs1 [2], 69.9 µM.
`C=CCOP(=O)(O)OC[C@H]1O[C@@H](n2cnc3c(N)ncnc32)[C@H](O)[C@@H]1O` [vi, Allyl-AMP]: the IC50 on CnKbc1 [4] is over 100 µM; at LiAcs1 [2], 12.5 µM; against CnAcs1 [3] it was 41 µM.
`Nc1ncnc2c1ncn2[C@@H]1O[C@H](COP(=O)(O)OC2CCCC2)[C@@H](O)[C@H]1O` [x, Cyclopentyl-AMP]: the IC50 against CnAcs1 [6], on CnKbc1 [7] and at LiAcs1 [8] was over 100 µM each time.
As to `CC(C)OP(=O)(O)OC[C@H]1O[C@@H](n2cnc3c(N)ncnc32)[C@H](O)[C@@H]1O` [v, Isopropyl-AMP], the IC50 on CnKbc1 [4] was over 100 µM; at LiAcs1 [2], 6.7 µM; on CnAcs1 [3] it was 25.3 µM.
For `Nc1ncnc2c1ncn2[C@@H]1O[C@H](COP(=O)(O)OC2CC2)[C@@H](O)[C@H]1O` [iii, Cyclopropyl-AMP], in that order: over 100 µM, 2.2 µM and 8.7 µM.
For the molecule `CCCCOP(=O)(O)OC[C@H]1O[C@@H](n2cnc3c(N)ncnc32)[C@H](O)[C@@H]1O` [viii, Butyl-AMP], the figures for the IC50 at CnAcs1 [5], against CnKbc1 [1] and at LiAcs1 [9] were over 100 µM, 7.8 µM and over 100 µM, respectively.
With `C#CCOP(=O)(O)OC[C@H]1O[C@@H](n2cnc3c(N)ncnc32)[C@H](O)[C@@H]1O` [vii, Propargyl-AMP], the results for the IC50 on CnKbc1 [4], against LiAcs1 [2] and against CnAcs1 [3] were over 100 µM, 10.2 µM and 55.1 µM, respectively.

B1: LiAcs1 (Leishmania infantum) (protein)
chain: MSDNPHSLHPLSSDSTSQALHSSTKPPATPHEGEFHSVRDSNVVEPTEANGKKSHVGPHLGSRMRIYEYSIEHNDAFWAEIARRDFYWKTTWPDDQHVKSYNFDKSKGPIFVKWFEGAVTNVCYNALDRHLPAHKDRVCFYFEGNDPSVTEAVTYGSMYTRVVELANVLKYQYGIAKGDRVGLYLPMIPFAAVAMLACARIGAVITVIFGGFSAQALSSRLKDAQTKLLITADASARGTKPIPLKDVADEALKECEEEGMSIACLVAENMNRQSCKMKEGRDTWYGDALARLTPEQHEECPVEWMDAEDVLFLLYTSGSTGKPKAIVHTTAGYMVYASTTFMYSFDYHMDDVYFCTADIGWITGHSYVVYGPMIHCATSVLFEGVPNYPDYSRWWQLVEKYKVSILYTAPTAIRSLMQAGDDYVKVGNRSTLRVLGSVGEPINVEAWKWLRDVGGEGHCDVSDTWWQTETGGHMITPMPGCTPMKPGSATLPFFGVQPVILDPMKLHEKQGPAEGLLAIRAPWPGMARTIYGDHARFEKTYFGVDGYYMTGDGARRDSDGYYWITGRVDDVLNVSGHRIGTSEIEDAVNTHPAVVESAVVGFPHNIKGEGIYVFLTFRQGTEVTPELLAAVKATVRKVIGPLATPDVMQVARVGLPKTRSGKIVRRILRKVSAGQYTELGDTSTLANPDVVEDLIAEHQRLCSQN
For B1, the Km in data set [10] is reported as 88 (95% CI 71, 110) μM; in [11], 61 (95% CI 45, 83) μM.

As usually defined, the IC50 is the point on the concentration scale where inhibition reaches its midpoint. Read a low IC50 as inhibition by little substance.
